Columns and labels:
[1] = xn = mol fraction of the nth substance listed; details: 200 kPa, Liquid
[2] = 200 kPa, Liquid

NCCN [ethane-1,2-diamine] + O
[1]
Details | mass density [kg/m3]
282.78 K, x2 = 0.3967 | 956.193
282.92 K, x2 = 0.2017 | 929.116
282.96 K, x2 = 0.301 | 942.071
283.11 K, x2 = 0.8936 | 1000.8
283.13 K, x2 = 0.1028 | 917.186
283.26 K, x2 = 0.5026 | 973.123
283.47 K, x2 = 0.7687 | 1005.97
283.55 K, x2 = 0 | 905.993
283.69 K, x2 = 0.6032 | 989.21
284.35 K, x2 = 0.7026 | 1001.48
292.62 K, x2 = 0.8936 | 996.472
292.67 K, x2 = 0.5026 | 964.635
292.85 K, x2 = 0.7026 | 994.548
292.93 K, x2 = 0.2017 | 919.983
292.93 K, x2 = 0.301 | 933.047
293.05 K, x2 = 0.1028 | 908.064
293.06 K, x2 = 0 | 897.168
293.09 K, x2 = 0.3967 | 946.948
293.24 K, x2 = 0.7687 | 998.968
293.29 K, x2 = 0.6032 | 980.744
301.58 K, x2 = 0.7026 | 987.238
302.39 K, x2 = 0.6032 | 972.594
302.4 K, x2 = 0 | 888.38
302.47 K, x2 = 0.7687 | 992.107
302.85 K, x2 = 0.3967 | 938.019
302.85 K, x2 = 0.5026 | 955.328
302.96 K, x2 = 0.301 | 923.821
302.97 K, x2 = 0.8936 | 991.261
302.99 K, x2 = 0.1028 | 898.81
303.1 K, x2 = 0.2017 | 910.588
311.86 K, x2 = 0.7026 | 978.33
312.55 K, x2 = 0.6032 | 963.3
312.59 K, x2 = 0.7687 | 984.36
312.67 K, x2 = 0 | 878.632
312.77 K, x2 = 0.5026 | 946.166
313 K, x2 = 0.301 | 914.5
313.02 K, x2 = 0.8936 | 985.719
313.11 K, x2 = 0.1028 | 889.308
313.14 K, x2 = 0.2017 | 901.221
313.98 K, x2 = 0.3967 | 927.719
322.34 K, x2 = 0.7687 | 976.647
322.65 K, x2 = 0.6032 | 953.972
322.72 K, x2 = 0.7026 | 968.66
322.86 K, x2 = 0.301 | 905.205
322.88 K, x2 = 0.5026 | 936.708
322.93 K, x2 = 0.2017 | 891.98
323.04 K, x2 = 0.1028 | 879.883
323.15 K, x2 = 0 | 868.618
323.15 K, x2 = 0.8936 | 979.69
323.75 K, x2 = 0.3967 | 918.543
332.41 K, x2 = 0.7026 | 960.004
332.77 K, x2 = 0.7687 | 968.171
332.78 K, x2 = 0 | 859.342
332.89 K, x2 = 0.5026 | 927.173
332.96 K, x2 = 0.301 | 895.557
333.02 K, x2 = 0.6032 | 944.229
333.1 K, x2 = 0.1028 | 870.208
333.11 K, x2 = 0.2017 | 882.167
333.38 K, x2 = 0.8936 | 973.322
333.53 K, x2 = 0.3967 | 909.227
342.6 K, x2 = 0.7687 | 959.937
342.64 K, x2 = 0.5026 | 917.789
342.77 K, x2 = 0 | 849.651
342.81 K, x2 = 0.3967 | 900.276
342.98 K, x2 = 0.301 | 885.862
343.04 K, x2 = 0.1028 | 860.531
343.08 K, x2 = 0.7026 | 950.214
343.09 K, x2 = 0.8936 | 966.519
343.13 K, x2 = 0.2017 | 872.529
352.14 K, x2 = 0.7687 | 951.742
352.69 K, x2 = 0 | 839.921
352.71 K, x2 = 0.5026 | 907.894
352.83 K, x2 = 0.301 | 876.2
352.9 K, x2 = 0.8936 | 959.494
353.02 K, x2 = 0.1028 | 850.773
353.03 K, x2 = 0.2017 | 862.815
353.34 K, x2 = 0.3967 | 889.949
353.48 K, x2 = 0.7026 | 940.524

NCCN [ethane-1,2-diamine]
[2]
Details | mass density [kg/m3]
283.55 K | 905.993
293.06 K | 897.168
302.4 K | 888.38
312.67 K | 878.632
323.15 K | 868.618
332.78 K | 859.342
342.77 K | 849.651
352.69 K | 839.921

O [water] + NCCN
[1], x1 = 1
Details | mass density [kg/m3]
283.4 K | 999.862
293.28 K | 998.365
302.62 K | 995.966
312.13 K | 992.723
322.73 K | 988.284
332.94 K | 983.292
342.53 K | 978.02
352.19 K | 972.189
